Reference: patent US20090136561A1, “Non-peptidyl agents with pHSP20-like activity, and uses thereof” (Prolexys Pharmaceuticals, Inc., priority 2004, published 2009)
“And” between values parts separate entries of the source, which are not always exact repeats. Equal entries are not always repeated. “Also recorded” adds a separate entry of the source. Non-standard residues stand in square brackets, D forms with d. Residues, ends and D or L forms follow the SMILES beside them. pS = N[C@@H](COP(=O)(O)O)C(=O)O

Key:
[1] = target: T1, interaction between 14-3-3γ and pHSP20 (Homo sapiens, UniProt P61981); test: Fluorescence polarization assay of 14-3-3γ / fluorescein-labeled pHSP20 peptide (WLRRApSAP) interaction; assay type: binding; details: for inhibition of interaction between 14-3-3γ and pHSP20: dose response, FIG. 9; for IC50: multiple concentrations, FIG. 10
T1 sequence (P61981 1-247): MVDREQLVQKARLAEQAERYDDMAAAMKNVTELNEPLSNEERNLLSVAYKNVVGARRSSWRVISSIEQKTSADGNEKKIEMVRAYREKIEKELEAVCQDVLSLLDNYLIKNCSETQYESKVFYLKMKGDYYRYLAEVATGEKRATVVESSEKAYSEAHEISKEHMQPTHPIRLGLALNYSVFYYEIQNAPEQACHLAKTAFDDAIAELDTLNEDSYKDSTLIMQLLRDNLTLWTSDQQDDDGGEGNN
Experimental: The ability of compounds (a)-(k) to inhibit the interaction between 14-3-3γ and pHSP20 was determined by a fluorescence polarization (FP) assay. […] The initial screen for inhibitors examined approximately 50,000 compounds in the DiverSet library (ChemBridge, San Diego). Initial compound screening was carried out by first mixing peptide and individual compounds followed by addition of protein to a final volume of 15 ul. The final concentrations of each component were: 57.4 nM peptide, 10 uM compound, 5% DMSO, 1.5 uM 14-3-3 gamma, 0.01 M HEPES pH 7.4, 0.15 M NaCl, 3 mM EDTA, 0.005% Tween 20, 10 mM MnCl2, 9.33 mM Tris (7.5), and 0.0093% NaN3.
The ability of compounds (l) and (m) to inhibit the interaction between 14-3-3γ and pHSP20 was determined by a fluorescence polarization (FP) assay as described in Example 4, except that the compound was measured at multiple concentrations.

[2] = tested on: Primary human airway smooth muscle cells; test: Spontaneous bead motion (MSD) of RGD-coated microbeads on airway smooth muscle cells; assay type: cell-based; details: for effect on bead motion: formulated with 4% cyclodextrin, 10-15 minutes incubation
Experimental: Primary human airway smooth muscle cells were isolated from healthy individuals and cultured to passage 3-6. The cells were grown to confluence, and then serum deprived for 24 hours. The serum-deprived cells were plated on plastic wells coated with collagen.
After the cells were plated, RGD-coated microbeads were added. […] Consequently, the movement of the cells can be determined by monitoring the motion of the microbeads. In this assay, the rate of spontaneous bead motions (i.e., cell motion) depends upon the rate of reorganization of the actin cytoskeleton.
The position of each bead was recorded using video microscopy. The two-dimensional trajectory of bead motion are expressed as a mean square displacement (MSD) as a function of time: […]
where ri(t) is the distance of the ith bead at time t relative to its position at time 0.
The spontaneous bead motion in each sample of cells was first measured for 5 minutes. […] Spontaneous bead motions were then measured for another 5 minutes.

[3] = tested on: Primary human airway smooth muscle cells; test: Magnetic twisting cytometry, cell stiffness (storage modulus G'); assay type: cell-based; details: for change of cell stiffness (storage modulus): controls, measured over 10 minutes
Experimental: Primary human airway smooth muscle cells were isolated from healthy individuals and cultured to passage 3-6. The cells were grown to confluence, and then serum deprived for 24 hours. The serum-deprived cells were plated on plastic wells coated with collagen. After the cells were plated, RGD-coated microbeads were added. As described by Wang et al. Science 260:1124-1127, 1993, the microbeads become tightly anchored to the cell cytoskeleton. Consequently, the movement of the cells can be determined by monitoring the motion of the microbeads.
Once the cells were attached to the microbeads, the beads were magnetized using a magnetizing coil and twisted using a twisting coil, which generates an oscillating magnetic field at 0.7 Hz. The bead displacement is measured using video microscopy at 83 ms intervals. The amplitude of bead displacement is dependent on several factors, but generally the displacement is directly proportional to cell stiffness. The cell stiffness is expressed as a change of storage modulus (G′) over time (Maksym et al., J. Appl. Physiol. 89: 1619-1632, 2000).
The cell stiffness for control experiments and experiments using peptides was measured over 10 minutes. The peptides were added 1 minute after the start of the experiment. The cell stiffness for non-peptidyl compounds of the invention was measured for 1 minute, stopped, compound added and stiffness was measured for another 10 minutes.

[4] = tested on: Bovine coronary artery rings; test: Contraction/dilation of serotonin-treated bovine coronary artery rings; assay type: cell-based; details: for effect on the rings: cyclodextrin formulation, serotonin treated, 30 minutes after treatment
Experimental: Bovine coronary artery rings were treated with compositions containing only cyclodextrin or formulations of cyclodextrin in combination with a pHSP20 peptide, compound (m) or compound (n). The contraction of the rings was measured over time after treatment with serotonin and one of the formulations above. Each of the formulations was tested at several concentrations, with the exception of the pHSP20 peptide.

14-3-3 proteins = test: Pull-down with bead-immobilized peptides from HEK293 whole cell lysate, SDS-PAGE and MS analysis; assay type: binding, human; details: peptide immobilized on Affigel 10 beads
Experimental: To determine if the pHSP20 peptide binds to 14-3-3, pull-down experiments were conducted with pHSP20 and its analogues, aHSP20 and scrHSP20, linked to NHS activated Affigel 10 beads. As an additional control, activated beads were also reacted with ethanolamine. Each of the bead-bound peptide samples and the ethanolamine control were then separately incubated for 1.5 h at 4° C. with a whole cell lysate derived from HEK293 cells. After thoroughly washing the beads, each of the four sets of beads was eluted with a 100 μM solution of the free peptide corresponding to the one immobilized on the beads; the ethanolamine control beads were eluted with pHSP20. Approximately 15% of the eluate volume was run on an SDS-PAGE gel, while the remainder of the eluate was precipitated with ethanol and then analyzed by a 2D-LC shotgun MS method (Washburn et al., 2001, Nat. Biotechnol. 19:242).
The N-terminal amino group of the peptides was utilized for the immobilization to N-hydroxysuccinimide activated Affi-Gel 10 beads (Biorad, Hercules, Calif.). For the immobilization, 60 μg of each peptide, dissolved in dimethylformamide (DMF), was incubated for 4 h with 100 μl beads and 0.14 μmol triethylamine (Sigma, St. Louis, Mo.). The final volume during the immobilization was 400 μl. […] The release of the ivDde group was monitored by measuring the absorption at 290 nm. […]

14-3-3 gamma isoform = target: T2, 14-3-3 gamma isoform (Homo sapiens, UniProt P61981); test: Biacore competition: 14-3-3 gamma flowed over immobilized pHSP20 peptide in presence of competing peptides; assay type: binding; details: free peptide as competitor
T2 construct: GST-His (E23) or Biotin-His (E25)
T2 sequence (P61981 1-247): T1 sequence (P61981 1-247)
Experimental: To determine the relative binding affinity between various truncated versions of the pHSP20 (phosphorylated HSP20) peptide and the 14-3-3 gamma isoform, Applicants employed Biacore binding assays and the experiments were set up as follows. The pHSP20 peptide used in the original experiments (e.g., WLRRAp[…]) was immobilized to a Biacore chip and competition experiments were performed by flowing a 14-3-3 gamma isoform protein over the chip in the presence of different pHSP20 truncation variants. The pHSP20 truncation variants included: a) pHSP20 (positive control); b) HSP20 (unphosphorylated pHSP20, negative control); c) RRApSAP (minimal 14-3-3 consensus binding sequence); d) WLRRApSAP; e) RRApSAPLP; f) RRAp[…]; g) WLRRApSAPLP.
Competition experiments were done whereby the only variable between experiments is the identity of the competing peptide.

[5] = tested on: 14-3-3 isoforms (YWHAG, YWHAH, YWHAE, YWAHB, YWHAZ); test: Biacore binding of tagged 14-3-3 isoforms to immobilized pHSP20 peptide; details: E23- and E25-tagged 14-3-3 proteins
Experimental: To further determine binding specificity of the pHSP20 peptide for each 14-3-3 isoform, similar binding experiments were carried out with each 14-3-3 isoform. Various 14-3-3 isoforms were either tagged with GST-His (referred to as “E23”) or tagged with Biotin-His (referred to as “E25”). The E23-14-3-3 proteins (tagged with GST-His) bound much better than the E25-14-3-3 proteins (tagged with Biotin-His). Similar effects were detected by using a version of YWHAG (also referred to as 14-3-3γ) in which the GST tag was proteolytically removed. […] It is believed that the GST either has a chaperone or stabilizing effect on YWHAG or it promotes the formation of dimers of YWHAG which could have different binding properties to pHSP20. Further experiments are planned to elucidate this discrepancy.

CC(C)(C)c1nc(Nc2ccccc2)s[n+]1C=C(Cl)Cl [(a)]
inhibition of interaction between 14-3-3γ and pHSP20 [1]: able to largely inhibit interaction

COc1ccccc1Nc1nc(-c2ccccc2)[n+](-c2ccccc2)s1 [(j)]
inhibition of interaction between 14-3-3γ and pHSP20 [1]: able to largely inhibit interaction

O=C(N/N=C/c1cc(O)ccc1Br)c1ccncc1 [(o)]
effect on bead motion [2]: not conclusive

c1ccc(CNc2nc(-c3ccccc3)[n+](-c3ccccc3)s2)cc1 [compound (f)]
change of cell stiffness compared to the cyclodextrin control ([3]; solubilized with cyclodextrin, 10 minutes after addition): particular striking
inhibition of interaction between 14-3-3γ and pHSP20 [1]: able to largely inhibit interaction
effect on bead motion [2]: clearly increases bead motion

O=[N+]([O-])C1=Cc2cc(Br)cc(Br)c2OC1c1c(Cl)cccc1Cl (stereo not drawn) [compound (l)]
IC50 [1]: ~32 µM

O=C(N/N=C/c1ccc(O)c(O)c1O)c1ccncc1 [compound (m)]
duration of vasodilatory effect compared with pHSP20 peptide [4]: longer than that of the pHSP20 peptide
vasodilatory effect at 40 minutes after treatment [4]: no significant decrease in the vasodilatory effect
effect on the rings [4]: vasodilatory effect
IC50 [1]: ~13.5 µM
effect on bead motion [2]: not conclusive

COc1ccc(/C=N/NC(=O)c2cncc(Br)c2)c(OC)c1OC [compound (n)]
duration of vasodilatory effect compared with pHSP20 peptide [4]: longer than that of the pHSP20 peptide
vasodilatory effect at 40 minutes after treatment [4]: no significant decrease in the vasodilatory effect
effect on the rings [4]: vasodilatory effect
effect on bead motion [2]: not conclusive

NCCc1c[nH]cn1 [histamine]
change of cell stiffness (storage modulus) [3]: increased the cell stiffness

CC(C)NCC(O)c1ccc(O)c(O)c1 (stereo not drawn) [isoproterenol]
change of cell stiffness (storage modulus) [3]: decreased the stiffness

CC(C)C[C@H](NC(=O)CNC(=O)[C@@H]1CCCN1C(=O)[C@H](CC(C)C)NC(=O)[C@@H]1CCCN1C(=O)[C@H](C)NC(=O)[C@H](COP(=O)(O)O)NC(=O)[C@H](C)NC(=O)[C@H](CCCNC(=N)N)NC(=O)[C@H](CCCNC(=N)N)NC(=O)[C@H](CC(C)C)NC(=O)[C@@H](N)Cc1c[nH]c2ccccc12)C(=O)N[C@@H](CO)C(=O)N[C@@H](CCCCN)C(=O)O [pHSP20 peptide] (H-WLRRA[pS]APLPGLSK-OH; N-terminus and C-terminus assumed)
binding of 14-3-3 proteins in pull-down (14-3-3 proteins): binds to 14-3-3 proteins
competition with immobilized pHSP20 peptide for binding to 14-3-3γ (14-3-3 gamma isoform): binding of 14-3-3 to the pHSP20 ligand is decreased
isoform specificity for the pHSP20 peptide [5]: YWHAG>YWHAH>YWHAE=YWAHB=YWHAZ and 14-3-3γ (YWHAG) and 14-3-3η (YWHAH) bind stronger than the other 14-3-3 isoforms

O=[As]O [sodium arsenite, reference compound]
effect on bead movement ([2]; 200 μM, negative control): decrease in bead movement

RRApSAP
competition with immobilized pHSP20 peptide for binding to 14-3-3γ (14-3-3 gamma isoform): competed better than the original pHSP20 sequence; also recorded: higher binding affinity to 14-3-3 gamma than the original pHSP20 peptide; also recorded: strong competition

WLRRApSAP
competition with immobilized pHSP20 peptide for binding to 14-3-3γ (14-3-3 gamma isoform): higher binding affinity to 14-3-3 gamma than the original pHSP20 peptide; also recorded: strong competition
